Our source for the AC50 values is patent publication US20250171437A1 (Agios Pharmaceuticals,Inc., priority 2022, published 2025).

A value given as a limit tells only on which side of the number the result lay.

For this experiment, the target named is T1, human PAH with the R408W mutation (A375 R408W cells) (Homo sapiens, UniProt P00439, R408W).
T1 construct: expressed in transfected cells
T1 sequence (P00439 1-452 R408W): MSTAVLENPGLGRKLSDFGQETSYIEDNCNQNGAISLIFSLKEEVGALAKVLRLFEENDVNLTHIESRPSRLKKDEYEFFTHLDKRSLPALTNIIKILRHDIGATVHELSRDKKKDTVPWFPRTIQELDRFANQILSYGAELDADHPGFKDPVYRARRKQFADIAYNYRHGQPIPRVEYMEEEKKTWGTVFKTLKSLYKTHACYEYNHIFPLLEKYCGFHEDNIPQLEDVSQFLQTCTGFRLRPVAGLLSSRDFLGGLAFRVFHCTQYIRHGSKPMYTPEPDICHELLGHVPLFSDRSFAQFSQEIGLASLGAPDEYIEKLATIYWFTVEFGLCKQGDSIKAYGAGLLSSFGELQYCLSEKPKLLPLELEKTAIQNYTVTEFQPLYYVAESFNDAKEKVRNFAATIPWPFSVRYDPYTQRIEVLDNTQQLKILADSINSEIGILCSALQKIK
Put plainly: Cell Based Phenylalanine Flux Assay. Particulars: 24 hrs with compound, then 20 μM sepiapterin and 800 μM 13C9,15N-Phenylalanine for 4 hours, 13C-Tyrosine by LC-MS, average where tested multiple times. In outline:
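AC50 is derived from LC-MS of 13C-tyrosine in the media after a 4 h pulse of 800 μM 13C9,15N-phenylalanine plus 20 μM sepiapterin. The A375 R408W PAH cells had received duplicate 10-point, 2-fold compound dilutions (0.5% DMSO) for 24 h beforehand.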

[1] abbreviates: A375 cells expressing R408W PAH.

A word on the AC50: it is the midpoint of the concentration-response curve, whichever way the signal moves. Turning to `Cc1ccc2nc([C@@H]3c4nc[nH]c4CCN3C(=O)c3nnc(-c4ncccc4F)o3)oc2c1` [Example 679, (S)-(5-(3-fluoropyridin-2-yl)-1,3,4-oxadiazol-2-yl)(4-(6-methylbenzo[d]oxazol-2-yl)-6,7-dihydro-1H-imidazo[4,5-c]pyridin-5(4H)-yl)methanone], the half-maximal activity concentration (AC50) (A375 R408W cells) lay within 0.5 to 1 µM.

Turning to `Cc1ccc2nc([C@@H]3c4nc[nH]c4CCN3C(=O)c3nnc(-c4cnn(C(F)F)c4)o3)oc2c1` [Example 681, (S)-(5-(1-(difluoromethyl)-1H-pyrazol-4-yl)-1,3,4-oxadiazol-2-yl)(4-(6-methylbenzo[d]oxazol-2-yl)-6,7-dihydro-1H-imidazo[4,5-c]pyridin-5(4H)-yl)methanone], the AC50 (A375 R408W cells) was 0.5 to 1 µM.

With `N#Cc1ccc2c(C(=O)N3CCc4[nH]cnc4C3c3nc4cc(F)ccc4o3)cnn2c1` (stereo not drawn), the AC50 under setting [1] was ≥ 5 µM.

For the molecule `O=C(c1nnc(-c2ccc(OC(F)(F)F)cn2)o1)N1CCc2[nH]cnc2[C@H]1c1nc2cc(F)ccc2o1` [Example 671, (S)-(4-(5-fluorobenzo[d]oxazol-2-yl)-6,7-dihydro-1H-imidazo[4,5-c]pyridin-5(4H)-yl)(5-(5-(trifluoromethoxy)pyridin-2-yl)-1,3,4-oxadiazol-2-yl)methanone], under “A375 R408W cells”, the AC50 lay in the range of 1 to 5 µM.

On to `Cc1cccc2oc([C@H]3c4nc[nH]c4CCN3C(=O)c3ncnn3C)nc12` [Example 902, (R)-(1-methyl-1H-1,2,4-triazol-5-yl)(4-(4-methylbenzo[d]oxazol-2-yl)-6,7-dihydro-1H-imidazo[4,5-c]pyridin-5(4H)-yl)methanone], for which the AC50 (A375 R408W cells) lay within 1 to 5 µM.

Regarding `O=C(c1ocnc1C(F)F)N1CCc2[nH]cnc2[C@H]1c1nc2cc(OC(F)(F)F)ccc2o1` [Example 354, (S)-(4-(difluoromethyl)oxazol-5-yl)(4-(5-(trifluoromethoxy)benzo[d]oxazol-2-yl)-6,7-dihydro-1H-imidazo[4,5-c]pyridin-5(4H)-yl)methanone], under “A375 R408W cells”, the concentration at half-maximal activity (AC50) is ≤ 0.5 µM.

Regarding `O=C(c1oc(-c2ccccn2)nc1C1CC1)N1CCc2[nH]cnc2[C@H]1c1nc2cc(F)ccc2o1` [Example 43, (S)-(4-cyclopropyl-2-(pyridin-2-yl)oxazol-5-yl)(4-(5-fluorobenzo[d]oxazol-2-yl)-6,7-dihydro-1H-imidazo[4,5-c]pyridin-5(4H)-yl)methanone], the half-maximal activity concentration (AC50) (A375 R408W cells) is ≤ 0.5 µM.

Take `Cc1nc(C(=O)N2CCc3[nH]cnc3C2c2nc3c(F)cccc3o2)n(C)n1` (stereo not drawn): the AC50 under setting [1] lay in the range of 1 to 5 µM.

Regarding `O=C(CCc1cnco1)N1CCc2[nH]cnc2C1c1nc2ccc(F)cc2o1` (stereo not drawn), the AC50 under setting [1] lay in the range of 1 to 5 µM.

`CC(C)(O)c1cc(C(=O)N2CCc3[nH]cnc3C2c2nc3cc(F)ccc3o2)sn1` (stereo not drawn): the concentration at half-maximal activity (AC50) under setting [1] is ≥ 5 µM.

On to `Cc1nc(C(=O)N2CCc3[nH]cnc3[C@H]2c2nc3cccc(C)c3o2)n(C)n1` [Example 907, (S)-(1,3-dimethyl-1H-1,2,4-triazol-5-yl)(4-(7-methylbenzo[d]oxazol-2-yl)-6,7-dihydro-1H-imidazo[4,5-c]pyridin-5(4H)-yl)methanone], for which the half-maximal activity concentration (AC50) (A375 R408W cells) is 1 to 5 µM.

In the case of `Cc1cc(C(=O)N2CCc3[nH]cnc3[C@@H]2c2nc3cccc(C)c3o2)n(C)n1` [Example 782, (R)-(1,3-dimethyl-1H-pyrazol-5-yl)(4-(7-methylbenzo[d]oxazol-2-yl)-6,7-dihydro-1H-imidazo[4,5-c]pyridin-5(4H)-yl)methanone], for the setting “A375 R408W cells”, the half-maximal activity concentration (AC50) lay in the range of 0.5 to 1 µM.

As to `Cc1ccc2nc([C@H]3c4nc[nH]c4CCN3C(=O)c3ccnn3C(F)F)oc2c1` [Example 318, (R)-(1-(difluoromethyl)-1H-pyrazol-5-yl)(4-(6-methylbenzo[d]oxazol-2-yl)-6,7-dihydro-1H-imidazo[4,5-c]pyridin-5(4H)-yl)methanone], under “A375 R408W cells”, the AC50 is 0.5 to 1 µM.

As for `O=C(c1nnc(-c2ccc(F)c(F)c2)o1)N1CCc2[nH]cnc2[C@@H]1c1nc2cc(F)ccc2o1` [Example 76, (R)-(5-(3,4-difluorophenyl)-1,3,4-oxadiazol-2-yl)(4-(5-fluorobenzo[d]oxazol-2-yl)-6,7-dihydro-1H-imidazo[4,5-c]pyridin-5(4H)-yl)methanone], the AC50 (A375 R408W cells) was 1 to 5 µM.

`NCc1ccc2c(C(=O)N3CCc4[nH]cnc4C3c3nc4cc(F)ccc4o3)cnn2c1` (stereo not drawn): the AC50 under setting [1] is ≥ 5 µM.

As to `O=C(CC1CC1)N1CCc2[nH]cnc2[C@@H]1c1nc2ccc(Br)cc2o1` [Example 4, (R)-1-(4-(6-bromobenzo[d]oxazol-2-yl)-6,7-dihydro-1H-imidazo[4,5-c]pyridin-5(4H)-yl)-2-cyclopropylethanone], the concentration at half-maximal activity (AC50) (A375 R408W cells) is ≥ 5 µM.

Regarding `CC(F)(F)c1ncoc1C(=O)N1CCc2[nH]cnc2[C@H]1c1nc2c(F)cccc2o1` [Example 651, (S)-(4-(1,1-difluoroethyl)oxazol-5-yl)(4-(4-fluorobenzo[d]oxazol-2-yl)-6,7-dihydro-1H-imidazo[4,5-c]pyridin-5(4H)-yl)methanone], the AC50 (A375 R408W cells) is ≤ 0.5 µM.

On to `Cc1ccc2nc(C3c4nc[nH]c4CCN3C(=O)c3ocnc3C#N)oc2c1` (stereo not drawn), for which the half-maximal activity concentration (AC50) under setting [1] was ≥ 5 µM.

As to `COc1cccc2oc([C@H]3c4nc[nH]c4CCN3C(=O)c3ocnc3C(F)F)nc12` [Example 430, (R)-(4-(difluoromethyl)oxazol-5-yl)(4-(4-methoxybenzo[d]oxazol-2-yl)-6,7-dihydro-1H-imidazo[4,5-c]pyridin-5(4H)-yl)methanone], the half-maximal activity concentration (AC50) (A375 R408W cells) is 0.5 to 1 µM.

`CC(F)(F)c1ncoc1C(=O)N1CCc2[nH]cnc2[C@@H]1c1nc2c(F)cccc2o1` [Example 652, (R)-(4-(1,1-difluoroethyl)oxazol-5-yl)(4-(4-fluorobenzo[d]oxazol-2-yl)-6,7-dihydro-1H-imidazo[4,5-c]pyridin-5(4H)-yl)methanone]: under “A375 R408W cells”, the AC50 lay within 1 to 5 µM.

`Nc1cn2ncc(C(=O)N3CCc4[nH]cnc4[C@H]3c3nc4cc(F)ccc4o3)c2cc1Cl` [Example 177, (S)-(6-amino-5-chloropyrazolo[1,5-a]pyridin-3-yl)(4-(5-fluorobenzo[d]oxazol-2-yl)-6,7-dihydro-1H-imidazo[4,5-c]pyridin-5(4H)-yl)methanone]: the half-maximal activity concentration (AC50) (A375 R408W cells) is ≤ 0.5 µM.

Regarding `O=C(CCc1nccs1)N1CCc2[nH]cnc2[C@@H]1c1nc2cccc(F)c2o1` [Example 386, 1-[(4R)-4-(7-fluoro-1,3-benzoxazol-2-yl)-1,4,6,7-tetrahydroimidazo[4,5-c]pyridin-5-yl]-3-thiazol-2-yl-propan-1-one], under “A375 R408W cells”, the AC50 was ≥ 5 µM.

For `CC(C)n1nccc1C(=O)N1CCc2[nH]cnc2[C@H]1c1nc2ccccc2o1` [Example 752, (S)-(4-(benzo[d]oxazol-2-yl)-6,7-dihydro-1H-imidazo[4,5-c]pyridin-5(4H)-yl)(1-isopropyl-1H-pyrazol-5-yl)methanone], the AC50 (A375 R408W cells) was ≤ 0.5 µM.

In the case of `Cn1cc(-c2ccc3c(C(=O)N4CCc5[nH]cnc5[C@H]4c4nc5cccc(F)c5o4)cnn3c2)cn1` [Example 383, (S)-(4-(7-fluorobenzo[d]oxazol-2-yl)-6,7-dihydro-1H-imidazo[4,5-c]pyridin-5(4H)-yl)(6-(1-methyl-1H-pyrazol-4-yl)pyrazolo[1,5-a]pyridin-3-yl)methanone], the half-maximal activity concentration (AC50) (A375 R408W cells) is ≤ 0.5 µM.

For the molecule `Cc1cccc2nc(C3c4nc[nH]c4CCN3C(=O)c3cnn4cc(N5CCC(O)CC5)ccc34)oc12` (stereo not drawn), the AC50 under setting [1] lay within 1 to 5 µM.

For the molecule `[2H]C([2H])([2H])OCc1nc(C(F)F)c(C(=O)N2CCc3[nH]cnc3[C@@H]2c2nc3cc(F)ccc3o2)o1` [Example 156, (R)-(4-(difluoromethyl)-2-((methoxy-d3)methyl)oxazol-5-yl)(4-(5-fluorobenzo[d]oxazol-2-yl)-1,4,6,7-tetrahydro-5H-imidazo[4,5-c]pyridin-5-yl)methanone], under “A375 R408W cells”, the concentration at half-maximal activity (AC50) was in the range of 1 to 5 µM.

For the molecule `O=C(c1cnn(CC(F)(F)F)c1C(F)F)N1CCc2[nH]cnc2[C@H]1c1nc2cc(F)ccc2o1` [Example 183, (S)-(5-(difluoromethyl)-1-(2,2,2-trifluoroethyl)-1H-pyrazol-4-yl)(4-(5-fluorobenzo[d]oxazol-2-yl)-6,7-dihydro-1H-imidazo[4,5-c]pyridin-5(4H)-yl)methanone], the AC50 (A375 R408W cells) fell in the range of 0.5 to 1 µM.

Consider `O=C(c1ocnc1C(F)(F)F)N1CCc2[nH]cnc2[C@H]1c1nc2cccc(F)c2o1` [Example 171, (S)-(4-(7-fluorobenzo[d]oxazol-2-yl)-6,7-dihydro-1H-imidazo[4,5-c]pyridin-5(4H)-yl)(4-(trifluoromethyl)oxazol-5-yl)methanone], for which the concentration at half-maximal activity (AC50) (A375 R408W cells) is ≤ 0.5 µM.

Regarding `Cc1ccc2nc([C@@H]3c4nc[nH]c4CCN3C(=O)c3ocnc3C(F)F)oc2c1` [Example 884, (S)-(4-(difluoromethyl)oxazol-5-yl)(4-(6-methylbenzo[d]oxazol-2-yl)-6,7-dihydro-1H-imidazo[4,5-c]pyridin-5(4H)-yl)methanone], the half-maximal activity concentration (AC50) (A375 R408W cells) is ≤ 0.5 µM.

As to `Cc1ccc2oc([C@H]3c4nc[nH]c4CCN3C(=O)c3nnc(-c4ccn(C(F)F)n4)o3)nc2c1` [Example 696, (R)-(5-(1-(difluoromethyl)-1H-pyrazol-3-yl)-1,3,4-oxadiazol-2-yl)(4-(5-methylbenzo[d]oxazol-2-yl)-6,7-dihydro-1H-imidazo[4,5-c]pyridin-5(4H)-yl)methanone], for the setting “A375 R408W cells”, the AC50 is 1 to 5 µM.
